Test results as given in patent US7652153B2, “Caspase inhibitors and uses thereof” (Vertex Pharmaceuticals Incorporated, priority 2004, dated 2010).

Columns and labels:
caspase-1 = target: T1, caspase-1 (Homo sapiens, UniProt P29466); assay: Caspase-1 enzyme inhibition (Ki, method of Margolin et al.); type: biochemical; conditions: Suc-YVAD-pNA substrate 80 μM, 37° C., pH 7.5; read-out: Ki C1
T1 sequence (P29466 120-297 limits assumed): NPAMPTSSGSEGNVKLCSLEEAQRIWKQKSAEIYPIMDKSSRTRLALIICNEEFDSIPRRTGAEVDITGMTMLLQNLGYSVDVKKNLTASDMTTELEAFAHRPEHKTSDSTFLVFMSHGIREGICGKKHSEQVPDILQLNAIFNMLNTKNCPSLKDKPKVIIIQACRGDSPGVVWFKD
T1 sequence (P29466 317-404 limits assumed): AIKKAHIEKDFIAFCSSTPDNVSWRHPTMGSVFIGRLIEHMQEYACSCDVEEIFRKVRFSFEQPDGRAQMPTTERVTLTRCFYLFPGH
Method in brief: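 Enzyme (0.5-40 nM active, by active-site titration) preincubated 15 min at 37° C with inhibitor in 10 mM Tris pH 7.5, 1 mM DTT, 0.1% CHAPS. Reaction started with Suc-YVAD-pNA (80 μM final), rate followed by absorbance at 405 nm at 37° C. Ki from Morrison tight-binding fit for competitive inhibitors.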

caspase-8 = caspase-8 (Homo sapiens, UniProt Q14790); assay: Caspase-8 enzyme inhibition (Ki, method of Margolin et al.); type: biochemical; conditions: Ac-DEVD-pNA substrate 80 μM, 37° C., pH 7.5; read-out: Ki C8
Method in brief: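 Caspase (0.5-40 nM active, by active-site titration) preincubated with inhibitor 15 min at 37° C in 10 mM Tris pH 7.5, 1 mM DTT, 0.1% CHAPS. Reaction started with Ac-DEVD-pNA (80 μM final), rate followed by absorbance at 405 nm; Ki from Morrison tight-binding fit for competitive inhibitors.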

Chain of caspase-8 (Q14790 217-374 limits assumed, species assumed): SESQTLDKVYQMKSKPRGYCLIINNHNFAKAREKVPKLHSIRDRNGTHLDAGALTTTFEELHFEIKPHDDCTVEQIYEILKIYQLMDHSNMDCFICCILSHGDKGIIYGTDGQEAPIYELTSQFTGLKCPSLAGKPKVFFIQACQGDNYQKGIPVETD
Chain of caspase-8 (Q14790 385-479 limits assumed, species assumed): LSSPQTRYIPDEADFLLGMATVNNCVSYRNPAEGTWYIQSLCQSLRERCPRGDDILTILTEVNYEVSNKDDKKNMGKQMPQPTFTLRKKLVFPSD

Compound	Ki (caspase-1) [nM]	Ki (caspase-8) [nM]
CC(C)(C)[C@H](NC(=O)c1nccc2ccccc12)C(=O)N1[C@@H]2CC[C@@H](C2)[C@H]1C(=O)N[C@H](C=O)CC(=O)O (stereo in doubt) [II-64, (3S)-({2-[(2S)-(Isoquinolin-1-ylcarbonylamino)-3,3-dimethyl-butyryl]-2-(1S,4R)-aza-bicyclo[2.2.1]heptane-(3S)-carbonyl}-amino)-4-oxo-butyric acid]	10 to 20	10 to 20
CC(C)Oc1ccc(C(=O)N[C@H](C(=O)N2CCC[C@H]2C(=O)N[C@H](C=O)CC(=O)O)C(C)C)c(Cl)c1 [II-46, (S,S,S)-(3S)-({1-[(2S)-(2-chloro-4-isopropyloxy-benzoylamino)-3-methyl-butyryl]-pyrrolidine-(2S)-carbonyl}-amino)-4-oxo-butyric acid]	< 10	21 to 30
COc1cccc(C(=O)N[C@H](C(=O)N2CCC[C@H]2C(=O)N[C@H](C=O)CC(=O)O)C(C)C)c1Cl [II-35, (S,S,S)-(3S)-({1-[(2S)-(2-chloro-3-methoxy-benzoylamino)-3-methyl-butyryl]-pyrrolidine-(2S)-carbonyl}-amino)-4-oxo-butyric acid]	< 10	< 10
CC(C)(C)[C@H](NC(=O)c1ccc(O)cc1Cl)C(=O)N1CCC[C@H]1C(=O)N[C@H](C=O)CC(=O)O [II-47, (S,S,S)-(3S)-({1-[(2S)-(2-chloro-4-hydroxy-benzoylamino)-3,3-dimethyl-butyryl]-pyrrolidine-(2S)-carbonyl}-amino)-4-oxo-butyric acid]	< 10	< 10
COc1cccc(C(=O)N[C@H](C(=O)N2[C@@H]3CC[C@@H](C3)[C@H]2C(=O)NC(C=O)CC(=O)O)C(C)(C)C)c1C (stereo in doubt) [II-55, (3S)-({2-[(2S)-(3-Methoxy-2-methyl-benzoylamino)-3,3-dimethyl-butyryl]-2-(1S,4R)-aza-bicyclo[2.2.1]heptane-(3S)-carbonyl}-amino)-4-oxo-butyric acid]	< 10	< 10
COc1cccc(C(=O)N[C@H](C(=O)N2CCC[C@H]2C(=O)N[C@H](C=O)CC(=O)O)C(C)(C)C)c1F [II-31, (S,S,S)-(3S)-({1-[(2S)-(2-Fluoro-3-methoxy-benzoylamino)-3,3-dimethyl-butyryl]-pyrrolidine-(2S)-carbonyl}-amino)-4-oxo-butyric acid]	< 10	< 10
Cc1ccccc1C(=O)N[C@H](C(=O)N1CCC[C@H]1C(=O)N[C@H](C=O)CC(=O)O)C(C)(C)C [II-26, (S,S,S)-(3S)-({1-[3,3-Dimethyl-(2S)-(2-methyl-benzoylamino)-butyryl]-pyrrolidine-(2S)-carbonyl}-amino)-4-oxo-butyric acid]	< 10	< 10
CC(C)(C)[C@H](NC(=O)c1cccc(OC2CC2)c1Cl)C(=O)N1CCC[C@H]1C(=O)N[C@H](C=O)CC(=O)O [II-33, (S,S,S)-(3S)-({1-[(2S)-(2-Chloro-3-cyclopropyloxy-benzoylamino)-3,3-dimethyl-butyryl]-pyrrolidine-(2S)-carbonyl}-amino)-4-oxo-butyric acid]	< 10	< 10
CC(=O)Nc1ccc(C(=O)N[C@H](C(=O)N2C3CC[C@@H](C3)[C@H]2C(=O)N[C@H](C=O)CC(=O)O)C(C)(C)C)c(Cl)c1 (stereo in doubt) [II-57, (3S)-({2-[(2S)-(4-Acetylamino-2-chloro-benzoylamino)-3,3-dimethyl-butyryl]-2-(1S,4R)-aza-bicyclo[2.2.1]heptane-(3S)-carbonyl}-amino)-4-oxo-butyric acid]	< 10	< 10
CC(C)[C@H](NC(=O)c1ccccc1C(F)(F)F)C(=O)N1CCC[C@H]1C(=O)N[C@H](C=O)CC(=O)O [II-27, (S,S,S)-(3S)-({1-[3-Methyl-(2S)-(2-trifluoromethyl-benzoylamino)-butyryl]-pyrrolidine-(2S)-carbonyl}-amino)-4-oxo-butyric acid]	< 10	< 10
COc1cccc(C(=O)N[C@H](C(=O)N2C3CC[C@@H](C3)[C@H]2C(=O)N[C@H](C=O)CC(=O)O)C(C)(C)C)c1F (stereo in doubt) [II-60, (3S)-({2-[(2S)-(2-Fluoro-3-methoxy-benzoylamino)-3,3-dimethyl-butyryl]-2-(1S,4R)-aza-bicyclo[2.2.1]heptane-(3S)-carbonyl}-amino)-4-oxo-butyric acid]	< 10	< 10
